Data as given in ChEMBL document CHEMBL1201862, “PubChem BioAssay data set” (2004).
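Method: 48-hour compound exposure of cells in 96-well plates, five concentrations, linear interpolation of endpoints. GI50: concentration for 50% inhibition of growth.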 Active and inactive are the calls of the source. Rule as the data show it: active = GI50 up to about 1.1 µM and inactive = higher.

Assays:
Assay in all cases: DTP human tumour cell line panel, 48 h
COLO 205 = test system: COLO 205
RXF 393 = test system: RXF 393
HOP-62 = test system: HOP-62
EKVX = test system: EKVX
IGROV-1 = test system: IGROV-1
UACC-257 = test system: UACC-257
KM12 = test system: KM12
CAKI-1 = test system: CAKI-1
NCI-H226 = test system: NCI-H226
Malme-3M = test system: Malme-3M
NCI/ADR-RES = test system: NCI/ADR-RES
SF-539 = test system: SF-539
ACHN = test system: ACHN
A549 = test system: A549
Hs-578T = test system: Hs-578T
HCT-15 = test system: HCT-15
HT-29 = test system: HT-29
HCC 2998 = test system: HCC 2998
MDA-N = test system: MDA-N
LXFL 529 = test system: LXFL 529

| SMILES | GI50 (COLO 205) | GI50 (RXF 393) | GI50 (HOP-62) | GI50 (EKVX) | GI50 (IGROV-1) | GI50 (UACC-257) | GI50 (KM12) | GI50 (CAKI-1) | GI50 (NCI-H226) | GI50 (Malme-3M) | GI50 (NCI/ADR-RES) | GI50 (SF-539) | GI50 (ACHN) | GI50 (A549) | GI50 (Hs-578T) | GI50 (HCT-15) [µM] | GI50 (HT-29) | GI50 (HCC 2998) | GI50 (MDA-N) | GI50 (LXFL 529) |
| --- | --- | --- | --- | --- | --- | --- | --- | --- | --- | --- | --- | --- | --- | --- | --- | --- | --- | --- | --- | --- |
| O=C(O)CSc1ccc(N=C=S)cc1 | 53.2 µM (inactive) | 28.4 µM (inactive) | 54.1 µM (inactive) | > 100 µM (inactive) | > 100 µM (inactive) | 29.5 µM (inactive) | > 100 µM (inactive) | > 100 µM (inactive) | 54.5 µM (inactive) | 27.4 µM (inactive) | > 100 µM (inactive) | 30.5 µM (inactive) | > 100 µM (inactive) | > 100 µM (inactive) | 47.5 µM (inactive) | 62.8 | > 100 µM (inactive) | 31.1 µM (inactive) | 54.1 µM (inactive) | – |
| CCN(CC)C1Oc2cc3c(cc2C(c2cc(OC)c(OC)c(OC)c2)C1C)OCO3 (stereo not drawn) | 0.875 µM (active) | 0.839 µM (active) | 0.471 µM (active) | 10.4 µM (inactive) | 1.52 µM (inactive) | 2.88 µM (inactive) | 0.53 µM (active) | 1.85 µM (inactive) | 0.875 µM (active) | 0.748 µM (active) | 0.219 µM (active) | 0.457 µM (active) | 2.14 µM (inactive) | 1.55 µM (inactive) | 0.759 µM (active) | 0.518 | 0.603 µM (active) | 0.809 µM (active) | 0.0836 µM (active) | – |
| O=C(OCC(OC(=O)c1ccccc1)C(OC(=O)c1ccccc1)C(OC(=O)c1ccccc1)c1cnn(-c2ccccc2)n1)c1ccccc1 (stereo not drawn) | > 100 µM (inactive) | > 100 µM (inactive) | > 100 µM (inactive) | > 100 µM (inactive) | > 100 µM (inactive) | > 100 µM (inactive) | > 100 µM (inactive) | > 100 µM (inactive) | > 100 µM (inactive) | > 100 µM (inactive) | > 100 µM (inactive) | > 100 µM (inactive) | > 100 µM (inactive) | > 100 µM (inactive) | > 100 µM (inactive) | > 100 | > 100 µM (inactive) | > 100 µM (inactive) | > 100 µM (inactive) | – |
| CC1CC[C@@]2(OC1)OC1C[C@H]3[C@@H]4CC=C5CC(OC6OC(CO)C(OC7OC(CO)C(O)C(OC8OCC(O)C(O)C8O)C7OC7OC(CO)C(OC8OC(C)C(OC9OC(C)C(O)C(O)C9O)C(O)C8O)C(O)C7O)C(O)C6O)CCC5(C)[C@H]4CCC3(C)C1[C@@H]2C (stereo partly drawn) | 8.22 µM (inactive) | 6.34 µM (inactive) | 7.13 µM (inactive) | 8.28 µM (inactive) | 8.49 µM (inactive) | 9.35 µM (inactive) | 9.33 µM (inactive) | 7.55 µM (inactive) | 9.08 µM (inactive) | 10.6 µM (inactive) | 9.48 µM (inactive) | 6.08 µM (inactive) | 2.5 µM (inactive) | 7.48 µM (inactive) | 9.29 µM (inactive) | 9.64 | 8.17 µM (inactive) | 7.08 µM (inactive) | 9.02 µM (inactive) | – |
| COCCNC1CCC2(SCCS2)c2[nH]c3ccccc3c21 (stereo not drawn) | 22.2 µM (inactive) | 14 µM (inactive) | 86.7 µM (inactive) | > 100 µM (inactive) | > 100 µM (inactive) | 18 µM (inactive) | 17.8 µM (inactive) | 39.1 µM (inactive) | 40.3 µM (inactive) | > 10 µM (inactive) | 37.5 µM (inactive) | 23.6 µM (inactive) | 61.9 µM (inactive) | > 100 µM (inactive) | 57.9 µM (inactive) | 69.8 | > 100 µM (inactive) | 67.6 µM (inactive) | 22.9 µM (inactive) | – |
| O=C1CCCCCCCCCCC1CN1CCCCC1 (stereo not drawn) | 41.4 µM (inactive) | – | > 100 µM (inactive) | > 100 µM (inactive) | 74.3 µM (inactive) | 70.6 µM (inactive) | 71.1 µM (inactive) | – | 28.2 µM (inactive) | > 100 µM (inactive) | – | – | > 100 µM (inactive) | > 100 µM (inactive) | – | 59.8 | 35.6 µM (inactive) | > 100 µM (inactive) | – | > 100 µM (inactive) |
| Cc1ccccc1NC(=O)C1C(=O)N(c2ccccc2C)C(=O)/C1=N\NC(N)=S (stereo not drawn) | – | – | – | > 100 µM (inactive) | > 100 µM (inactive) | > 100 µM (inactive) | > 100 µM (inactive) | > 100 µM (inactive) | > 100 µM (inactive) | > 100 µM (inactive) | – | > 100 µM (inactive) | > 100 µM (inactive) | > 100 µM (inactive) | – | – | > 100 µM (inactive) | – | – | > 100 µM (inactive) |
| O=C1C=CC(=O)c2c1ccc1c3ccccc3n(CCCCCn3c4ccccc4c4ccc5c(c43)C(=O)C=CC5=O)c21 | 15.2 µM (inactive) | 5.68 µM (inactive) | > 91.4 µM (inactive) | 33.3 µM (inactive) | 14.7 µM (inactive) | 16.3 µM (inactive) | > 100 µM (inactive) | 6.98 µM (inactive) | > 100 µM (inactive) | 16.7 µM (inactive) | 25.6 µM (inactive) | 16.1 µM (inactive) | 15.3 µM (inactive) | > 100 µM (inactive) | 21.2 µM (inactive) | 17.2 | 32 µM (inactive) | 33 µM (inactive) | 20.3 µM (inactive) | – |
| N#Cc1c(C#N)c(-c2ccccc2)n(/N=C\c2ccccc2)c1N | 22.5 µM (inactive) | 17.9 µM (inactive) | 31.3 µM (inactive) | 13.6 µM (inactive) | 15.6 µM (inactive) | 17.3 µM (inactive) | 26.9 µM (inactive) | 18.3 µM (inactive) | 20.8 µM (inactive) | 29.9 µM (inactive) | 11.2 µM (inactive) | 15.9 µM (inactive) | 14.2 µM (inactive) | 13 µM (inactive) | 15.9 µM (inactive) | 30.6 | 26.1 µM (inactive) | 19.7 µM (inactive) | 36.1 µM (inactive) | – |
| O=c1[nH]c(=O)n(C2OC(CO)C(O)C2O)cc1OCCCc1ccccc1 (stereo not drawn) | > 100 µM (inactive) | > 100 µM (inactive) | > 100 µM (inactive) | > 100 µM (inactive) | > 100 µM (inactive) | > 100 µM (inactive) | > 100 µM (inactive) | > 100 µM (inactive) | > 100 µM (inactive) | > 100 µM (inactive) | > 100 µM (inactive) | > 100 µM (inactive) | > 100 µM (inactive) | > 100 µM (inactive) | > 100 µM (inactive) | > 100 | > 100 µM (inactive) | > 100 µM (inactive) | > 100 µM (inactive) | – |
| CCCCc1ccc(Nc2cc(=O)n(C)c(=O)[nH]2)cc1 | > 100 µM (inactive) | > 100 µM (inactive) | > 100 µM (inactive) | > 100 µM (inactive) | > 100 µM (inactive) | > 100 µM (inactive) | 49.4 µM (inactive) | > 100 µM (inactive) | > 100 µM (inactive) | > 100 µM (inactive) | 57.4 µM (inactive) | 84.3 µM (inactive) | > 100 µM (inactive) | > 100 µM (inactive) | > 100 µM (inactive) | 93.1 | > 100 µM (inactive) | > 100 µM (inactive) | > 100 µM (inactive) | – |
| N#C/N=C(/N)NCc1ccccc1 | > 100 µM (inactive) | – | > 100 µM (inactive) | – | > 100 µM (inactive) | > 100 µM (inactive) | > 100 µM (inactive) | – | > 100 µM (inactive) | > 100 µM (inactive) | – | > 100 µM (inactive) | > 100 µM (inactive) | > 100 µM (inactive) | – | > 100 | > 100 µM (inactive) | 23.4 µM (inactive) | – | > 100 µM (inactive) |
| CNNC1=NS(=O)(=O)c2cc(C(=O)OC)c(Cl)cc2S1 | > 10 µM (inactive) | > 10 µM (inactive) | > 10 µM (inactive) | > 10 µM (inactive) | > 10 µM (inactive) | > 10 µM (inactive) | > 10 µM (inactive) | > 10 µM (inactive) | > 10 µM (inactive) | > 10 µM (inactive) | > 10 µM (inactive) | > 10 µM (inactive) | > 10 µM (inactive) | > 10 µM (inactive) | > 10 µM (inactive) | > 10 | > 10 µM (inactive) | > 10 µM (inactive) | > 10 µM (inactive) | – |
| C=C1C(=O)OC2CC1C(O)C/C(C)=C/CC/C(C)=C/C(O)CC2C (stereo not drawn) | 1.49 µM (inactive) | 1.01 µM (active) | 11.4 µM (inactive) | 1.87 µM (inactive) | 2.75 µM (inactive) | 2.4 µM (inactive) | 5.21 µM (inactive) | 2.75 µM (inactive) | 9.33 µM (inactive) | 2.37 µM (inactive) | 2 µM (inactive) | 2.35 µM (inactive) | 1.65 µM (inactive) | 12.4 µM (inactive) | 3.03 µM (inactive) | 1.73 | 1.78 µM (inactive) | 1.83 µM (inactive) | 1.19 µM (inactive) | – |
| Cc1cccc(C)c1/N=N/c1ccc(O)c(CN(C)C)c1 | 22.3 µM (inactive) | 0.716 µM (active) | 51.6 µM (inactive) | > 100 µM (inactive) | 26.3 µM (inactive) | 32.7 µM (inactive) | > 100 µM (inactive) | 79.4 µM (inactive) | 87.9 µM (inactive) | 20.5 µM (inactive) | 41.2 µM (inactive) | 79.4 µM (inactive) | 36.2 µM (inactive) | 65.9 µM (inactive) | 30.8 µM (inactive) | > 100 | 22.7 µM (inactive) | 19.9 µM (inactive) | 50.8 µM (inactive) | – |
